Results published in the supplement of paper PMC11061612.

How the values were obtained:
Test in all cases: combination Emax (second highest fraction inhibited in the dose matrix, 72 h); higher = more inhibition; extreme values may be limits of the assay
[1] = system: SAS (Oral Cavity Carcinoma)
Outline: (§1)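 Cell lines grown in DMEM/F12 or RPMI with 10% FBS were plated in 1536-well plates and held 24 hours at 37°C, 5% CO2 before 72 hours of exposure to two-drug dose matrices, with DMSO typically at 0.2%. CellTiter-Glo 2.0 luminescence gave viability, which was converted to inhibition. Vehicle wells were set to 0 and blank wells to 1. Combination Emax is the second-highest inhibition in the matrix, and Bliss excess is the observed combination effect minus the expected EA + EB − EA·EB, where EA and EB are the single-agent effects.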

[2] = system: FTC-133 (Thyroid Gland Carcinoma)
Outline: as §1

EW-11 (Ewing's Sarcoma) = system: EW-11 (Ewing's Sarcoma)
Outline: as §1

[3] = system: BFTC-909 (Kidney Carcinoma)
Outline: as §1

BE2-M17 (Neuroblastoma) = system: BE2-M17 (Neuroblastoma)
Outline: as §1

BPH-1 (Non-Cancerous) = system: BPH-1 (Non-Cancerous)
Outline: as §1

[4] = system: NCI-H209 (Small Cell Lung Carcinoma)
Outline: as §1

[5] = system: HeLa (Cervical Carcinoma)
Outline: as §1

CAL-72 (Osteosarcoma) = system: CAL-72 (Osteosarcoma)
Outline: as §1

[6] = system: Hs-746T (Gastric Carcinoma)
Outline: as §1

GAMG (Glioblastoma) = system: GAMG (Glioblastoma)
Outline: as §1

[7] = system: SW1573 (Lung Adenocarcinoma)
Outline: as §1

[8] = system: CAL-33 (Oral Cavity Carcinoma)
Outline: as §1

MPP-89 (Mesothelioma) = system: MPP-89 (Mesothelioma)
Outline: as §1

[9] = system: L-428 (Hodgkin's Lymphoma)
Outline: as §1

[10] = system: KYAE-1 (Esophageal Adenocarcinoma)
Outline: as §1

[11] = system: NUGC-4 (Gastric Carcinoma)
Outline: as §1

[12] = system: Detroit562 (Head and Neck Carcinoma)
Outline: as §1

[13] = system: KMRC-20 (Kidney Carcinoma)
Outline: as §1

SMILES | combination Emax [1] | combination Emax [2] | combination Emax (EW-11 (Ewing's Sarcoma)) | combination Emax [3] | combination Emax (BE2-M17 (Neuroblastoma)) | combination Emax (BPH-1 (Non-Cancerous)) | combination Emax [4] | combination Emax [5] | combination Emax (CAL-72 (Osteosarcoma)) | combination Emax [6] | combination Emax (GAMG (Glioblastoma)) | combination Emax [7] | combination Emax [8] | combination Emax (MPP-89 (Mesothelioma)) | combination Emax [9] | combination Emax [10] | combination Emax [11] | combination Emax [12] | combination Emax [13]
COc1cccc(OCCCN)c1-c1cc(Nc2cnc(C#N)cn2)n[nH]1 [Prexasertib] + O=C(c1cc(Cc2n[nH]c(=O)c3ccccc23)ccc1F)N1CCN(C(=O)C2CC2)CC1 [Olaparib] (first compound max 1 µM, 7x7, partner max 10 µM) | 0.93 | 0.915 | 0.792 | 0.917 | 0.958 | 0.497 | 0.965 | 0.773 | 0.81 | 0.806 | 0.83 | 0.241 | 0.833 | 0.714 | 0.953 | 0.56 | 0.415 | 0.922 | 0.893
C=CCn1c(=O)c2cnc(Nc3ccc(N4CCN(C)CC4)cc3)nc2n1-c1cccc(C(C)(C)O)n1 [AZD1775] + C[C@@H]1COCCN1C2=NC(=NC(=C2)C3(CC3)[S@](=N)(=O)C)C4=C5C=CNC5=NC=C4 [AZD6738] (first compound max 1 µM, partner max 10 µM) | 0.908 | 0.766 | 0.72 | 0.906 | 0.957 | 0.588 | 0.944 | 0.948 | 0.93 | 0.691 | 0.596 | 0.476 | 0.935 | 0.737 | 0.891 | 0.588 | 0.593 | 0.902 | 0.763
CCc1c2c(nc3ccc(O)cc13)-c1cc3c(c(=O)n1C2)COC(=O)[C@]3(O)CC [SN-38] + CN(C)CCCOc1ccc(-c2ccc3ncc4c(c3c2)n(C2CCOCC2)c(=O)n4C)cn1 [AZD0156] (first compound max 0.3 µM, 7x7, partner max 1 µM) | 1 | 0.959 | 0.739 | 0.899 | 0.887 | 0.94 | 1 | 0.295 | 0.774 | 0.531 | 0.737 | 0.794 | 0.936 | 0.632 | 0.894 | 0.105 | 0.287 | 0.848 | 0.827
CN(C)CCCOc1ccc(-c2ccc3ncc4c(c3c2)n(C2CCOCC2)c(=O)n4C)cn1 [AZD0156] + CCN(CCO)CCCOc1ccc2c(Nc3cc(CC(=O)Nc4cccc(F)c4)[nH]n3)ncnc2c1 [AZD2811] (first compound max 1 µM, 7x7, partner max 1 µM) | 0.0904 | 0.284 | 0.409 | 0.127 | 0.411 | 0.459 | 0.552 | 0.156 | 0.286 | 0.155 | 0.22 | 0.168 | 0.71 | 0.105 | 0.187 | 0.103 | 0.0855 | 0.75 | 0.128
CCN(CCO)CCCOc1ccc2c(Nc3cc(CC(=O)Nc4cccc(F)c4)[nH]n3)ncnc2c1 [AZD2811] + C[C@@H]1COCCN1C2=NC(=NC(=C2)C3(CC3)[S@](=N)(=O)C)C4=C5C=CNC5=NC=C4 [AZD6738] (first compound max 1 µM, 7x7, partner max 10 µM) | 0.83 | 0.688 | 0.686 | 0.777 | 0.741 | 0.4 | 0.913 | 0.567 | 0.843 | 0.582 | 0.399 | 0.266 | 0.936 | 0.646 | 0.78 | 0.122 | 0.547 | 0.913 | 0.596
COc1cccc(OCCCN)c1-c1cc(Nc2cnc(C#N)cn2)n[nH]1 [Prexasertib] + C[C@@H]1COCCN1C2=NC(=NC(=C2)C3(CC3)[S@](=N)(=O)C)C4=C5C=CNC5=NC=C4 [AZD6738] (first compound max 1 µM, 7x7, partner max 10 µM) | 0.943 | 0.861 | 0.734 | 0.94 | 0.994 | 0.356 | 0.959 | 0.864 | 0.869 | 0.754 | 0.874 | 0.236 | 0.916 | 0.724 | 0.95 | 0.573 | 0.543 | 0.918 | 0.881
CCN(CCO)CCCOc1ccc2c(Nc3cc(CC(=O)Nc4cccc(F)c4)[nH]n3)ncnc2c1 [AZD2811] + O=C(c1cc(Cc2n[nH]c(=O)c3ccccc23)ccc1F)N1CCN(C(=O)C2CC2)CC1 [Olaparib] (first compound max 1 µM, 7x7, partner max 10 µM) | 0.197 | 0.223 | 0.564 | 0.221 | 0.354 | 0.566 | 0.971 | 0.293 | 0.322 | 0.232 | 0.399 | 0.221 | 0.732 | 0.189 | 0.348 | 0.208 | 0.21 | 0.702 | 0.24
COc1cccc2c1C(=O)c1c(O)c3c(c(O)c1C2=O)C[C@@](O)(C(=O)CO)C[C@@H]3O[C@H]1C[C@H](N)[C@H](O)[C@H](C)O1 [Doxorubicin] + Cc1cc2ncnn2cc1Nc1ncc2c(n1)n(C1CCOCC1)c(=O)n2C [AZD7648] (first compound max 1 µM, 7x7, partner max 10 µM) | 0.921 | 0.92 | 0.893 | 0.853 | 0.862 | 0.951 | 0.993 | 0.499 | 0.663 | 0.737 | 0.945 | 0.533 | 0.873 | 0.734 | 0.937 | 0.879 | 0.393 | 0.681 | 0.524
CS(=O)(=O)CCNCc1ccc(-c2ccc3ncnc(Nc4ccc(OCc5cccc(F)c5)c(Cl)c4)c3c2)o1 [Lapatinib] + NC1(c2ccc(-c3nc4ccn5c(=O)[nH]nc5c4cc3-c3ccccc3)cc2)CCC1 [MK-2206] (first compound max 10 µM, 7x7, partner max 10 µM) | 0.641 | – | 0.948 | 0.941 | – | – | – | – | 0.89 | – | 0.862 | – | – | 0.152 | – | 0.892 | – | – | –
CCc1c2c(nc3ccc(O)cc13)-c1cc3c(c(=O)n1C2)COC(=O)[C@]3(O)CC [SN-38] + O=C(c1cc(Cc2n[nH]c(=O)c3ccccc23)ccc1F)N1CCN(C(=O)C2CC2)CC1 [Olaparib] (first compound max 0.3 µM, 7x7, partner max 10 µM) | 1 | – | 0.742 | 0.931 | 0.89 | 0.963 | – | 0.397 | 0.708 | – | 0.762 | – | 0.962 | 0.646 | 0.94 | 0.118 | – | – | –
CS(=O)(=O)CCNCc1ccc(-c2ccc3ncnc(Nc4ccc(OCc5cccc(F)c5)c(Cl)c4)c3c2)o1 [Lapatinib] + Cn1cnc2c(F)c(Nc3ccc(Br)cc3Cl)c(C(=O)NOCCO)cc21 [Selumetinib] (first compound max 10 µM, 7x7, partner max 10 µM) | 0.677 | – | 0.195 | – | – | – | – | – | 0.446 | – | 0.644 | – | – | 0.42 | – | 0.83 | – | – | –
CC1(C)CCC(CN2CCN(c3ccc(C(=O)NS(=O)(=O)c4ccc(NCC5CCOCC5)c([N+](=O)[O-])c4)c(Oc4cnc5[nH]ccc5c4)c3)CC2)=C(c2ccc(Cl)cc2)C1 [Venetoclax] + CS(=O)(=O)CCNCc1ccc(-c2ccc3ncnc(Nc4ccc(OCc5cccc(F)c5)c(Cl)c4)c3c2)o1 [Lapatinib] (first compound max 1 µM, 7x7, partner max 10 µM) | 0.392 | – | 0.263 | – | – | – | – | – | 0.646 | – | 0.284 | – | – | 0.136 | – | 0.758 | – | – | –
O=C(c1cc(Cc2n[nH]c(=O)c3ccccc23)ccc1F)N1CCN(C(=O)C2CC2)CC1 [Olaparib] + COc1nnc2ccc(N3CCC(c4ccc(OCCN5CCN(C)C(=O)[C@H]5C)cc4)CC3)nn12 [AZD5153] (first compound max 10 µM, 7x7, partner max 1 µM) | 0.742 | – | 0.712 | – | – | – | – | – | 0.475 | – | 0.448 | – | – | 0.393 | – | 0.156 | – | – | –
Cc1c2c(nn1C)CSCc1cc(n(C)n1)CSc1cc(c3ccccc3c1)OCCCc1c(C(=O)O)n(C)c3c-2c(Cl)ccc13 [AZD5991] + CS(=O)(=O)CCNCc1ccc(-c2ccc3ncnc(Nc4ccc(OCc5cccc(F)c5)c(Cl)c4)c3c2)o1 [Lapatinib] (first compound max 1 µM, 7x7, partner max 10 µM) | 0.485 | – | 0.572 | – | – | – | – | – | 0.83 | – | 0.507 | – | – | 0.312 | – | 0.84 | – | – | –
Cc1c2c(nn1C)CSCc1cc(n(C)n1)CSc1cc(c3ccccc3c1)OCCCc1c(C(=O)O)n(C)c3c-2c(Cl)ccc13 [AZD5991] + CC(=O)O[C@H]1C(=O)[C@@]2(C)[C@H]([C@H](OC(=O)c3ccccc3)[C@]3(O)C[C@H](OC(=O)[C@H](O)[C@@H](NC(=O)c4ccccc4)c4ccccc4)C(C)=C1C3(C)C)[C@]1(OC(C)=O)CO[C@@H]1C[C@@H]2O [Paclitaxel] (first compound max 1 µM, 7x7, partner max 3 µM) | 0.66 | – | 0.895 | – | – | – | – | – | 0.736 | – | 0.999 | – | – | 0.557 | – | 0.175 | – | – | –
